Experimental data: US20140024653A1, “COMPOSITIONS AND METHODS FOR TREATING CANCER USING PI3K INHIBITOR AND MEK INHIBITOR” (priority 2011, published 2014)
Like-named read-outs stand apart in the source and are kept apart here.

Columns and labels:
[1] = test system: human pancreatic MiaPaCa-2; assay: antitumor activity against subcutaneous MiaPaCa-2 xenografts; assay type: in vivo, nude mice; conditions: XL-147 50 mg/kg po QD, 21 days; 50 mg/kg
Description: The human pancreatic cancer cell line MiaPaCa-2 (American Type Culture Collection, Manassas Va.), was cultured in MEM medium containing 10% fetal bovine serum, 1% essential amino acid, 1% sodium pyruvate (Life Technologies, Carlsbad, Calif.). […] Cells were re-suspended in PBS (Life Technologies, Carlsbad, Calif.) and then mixed 1:1 with Matrigel (BD Biosciences, San Jose, Calif.). Cells were stored at 4° C. until implantation. MiaPaCa-2 cells (10×10^6 in a 200 μl PBS:Matrigel (1:1) suspension) were subcutaneously injected into the right flank area of female nude (Crl:NU-Foxn1nu) mice (6-8 weeks old, Charles River Laboratories, Wilmington, Mass.). All mice in this study were used according to the guidelines approved by the EMD-Serono Institutional Care and Animal Use Committee (IACUC), #07-003. Developing tumors located in the right flank area of female nude mice were measured over time with digital calipers. […] The remaining tumor-bearing mice were randomized into seven experimental groups (n=9), so that each group had the same mean tumor volume. […] The treatments began on the seventh day following implantation of the Miapaca-2 cells, which was designated as Day 0 for data evaluation purposes. […] Body weights and tumor volumes were assessed twice per week post treatment initiation. […] Efficacy was determined by analyzing tumor volumes and the percent ΔT/ΔC (% ΔT/ΔC). Tumor volume was determined by using the tumor length (1) and width (w) measurements and calculating the volume with the equation 1*w^2/2. The length was measured along the longest axis of the tumor and width was measured perpendicular to that length. The mean percent of actual tumor growth inhibited by the treatments was calculated as follows: [% ΔT/ΔC=(([…]))×100%], where TV=tumor volume, f=final, i=initial and Ctrl=control group. Tolerability was assessed by regarding percent body weight difference during the treatment period. Percent body weight difference was calculated as follows: [% Body weight difference=(BWc-BWi)/BWi×100%], where BW=body weight, c=current, i=initial.

[2] = test system: human colon carcinoma HCT 116; assay: HCT116 tumor growth in fluorescence molecular tomography study; assay type: in vivo, SCID mice; conditions: (2a) 50 mg/kg oral daily day 11 to day 17; p=0.023
[3] = test system: human primary colon tumors CR-LRB-009C; assay: antitumor activity against subcutaneous CR-LRB-009C xenografts; assay type: in vivo
Description: The human primary colon carcinoma CR-LRB-009C tumor model was established by implanting (SC) small tumor fragments and was maintained in SCID female mice using serial passages.
(§1) Treatments were administered on measurable tumors. […] Mice were checked daily, and adverse clinical reactions noted.
(§2) Animal body weights included the tumor weight.
(§3) The primary efficacy end points are ΔT/ΔC, percent median regression, partial and complete regressions (PR and CR). Statistical analyses were performed on SAS system release 8.2 for SUN4 via Everstat V5 software and SAS 9.2 software. A probability less than 5% (p<0.05) was considered as significant.

[4] = test system: human primary colon tumors CR-LRB-013P; assay: antitumor activity against subcutaneous CR-LRB-013P xenografts; assay type: in vivo
Description: The human primary colon carcinoma CR-LRB-013P tumor model was established by implanting (SC) small tumor fragments and was maintained in SCID female mice using serial passages.
as §1, §2, §3

[5] = test system: HCT116 tumor vascular permeability; assay: tumor vascular permeability, Evans Blue extravasation / Dextran-Fitc; assay type: in vivo, SCID mice; conditions: (2a) 50 mg/kg oral daily day 11 to day 13
Description: HCT116 tumor cells were implanted subcutaneously in the intra-scapular region in SCID mice. […] Each agent was given by oral route on a daily schedule. Tumor growth was monitored throughout the experiment by callipering the tumors. To quantify tumor vascular permeability, tumors were excised under ketamine/Xylazine (120/6 mg/kg ip) anesthesia at day 13, 4 hours post last treatment, 30 min after 0.5% Evans Blue iv injection, and 2 min post Dextran-Fitc 100 mg/kg iv injection. Tumors were then snap frozen, and 25 μm sections obtained for fluorescence quantification. Tumors sections were imaged with Icyte at 488 nm for vascular Dextran-Fitc determination and at 633 nm for Evans-Blue extravasation determination. Respective fluorescence were quantified as the sum of integral phantoms of fluorescence intensity and expressed as the mean ratio of Evans-Blue signal/Dextran-Fitc Signal.

[6] = chemical stability of dosing stock solution; assay type: physicochemical; conditions: in the dark at 4° C.
Description: Compound (2a) formulation was prepared in water for injection. The stock solution was chemically stable 7 days in the dark at 4° C. […] The pH of the final solution was 3. […]

[7] = test system: human colon carcinoma HCT 116
Description: Mice were over 18 g at start of treatment after an acclimatization time of at least 5 days. […] The mice were housed on a 12 hours light/dark cycle.
Human colon carcinoma HCT 116 cells were purchased at American Type Culture Collection [(ATCC), Rockville, Md., USA). The HCT 116 cells were cultured in Dulbecco's modified Eagle's medium (DMEM) (Invitrogen).
The animals required to begin a given experiment were pooled and implanted monolaterally on day 0. Treatments were administered on measurable tumors. The solid tumors were allowed to grow to the desired volume range (animals with tumors not in the desired range were excluded). The mice were then pooled and unselectively distributed to the various treatment and control groups. […] The dosages are expressed in mg/kg, based on the body weight at start of therapy. Mice were checked daily, and adverse clinical reactions noted. Each group of mice was weighed as a whole daily until the weight nadir was reached. Then, groups were weighed once to thrice weekly until the end of the experiment. Tumors were measured with a caliper 2 to 3 times weekly until final sacrifice for sampling time, tumor reached 2000 mm^3 or until the animal died (whichever comes first). Solid tumor volumes were estimated from two-dimensional tumor measurements and calculated according to the following equation:
Changes in tumor volume for each treated (T) and control (C) group were calculated for each tumor by subtracting the tumor volume on the day of first treatment (staging day) from the tumor volume on the specified observation day. The median ΔT is calculated for the treated group, and the median ΔC is calculated for the control group. Then the ratio ΔT/ΔC is calculated and expressed as a percentage. The dose is considered as therapeutically active when ΔT/ΔC is lower than 40% and very active when ΔT/ΔC is lower than 10%.
The percent of tumor regression is defined as the % of tumor volume decrease in the treated group at a specified observation day compared to its volume on the first day of treatment. At a specific time point and for each animal, % regression is calculated. The median % regression is then calculated for the group using the following equation:
Partial regression: Regressions are defined as partial if the tumor volume decreases to 50% of the tumor volume at the start of treatment.
Complete regression: The CR is achieved when tumor volume=0 mm^3 (CR is considered when tumor volume cannot be recorded).

[8] = test system: PC-3, U87-MG, A2058, WM-266-4 and MCF7 xenografts; conditions: oral administration alone; PTEN-deficient PC-3, U87-MG, A2058, WM-266-4 or PIK3CA mutated MCF7 xenografts; cited from earlier work
[9] = (2a) 75 mg/kg PO daily days 11-21
[10] = as single agents or used in combination
[11] = (2a) 75 mg/kg PO daily days 33-50
[12] = study 1, (2a) 50 mg/kg PO daily days 11-18
[13] = study 1, (2a) 75 mg/kg PO daily days 11-18
[14] = study 2, (2a) 50 mg/kg PO daily days 11-18
[15] = study 2, (2a) 75 mg/kg PO daily days 11-18
[16] = study 3, (2a) 50 mg/kg PO daily days 11-20
[17] = study 3, (2a) 75 mg/kg PO daily days 11-20

SMILES: COc1ccc(Cl)c(Nc2nc3ccccc3nc2NS(=O)(=O)c2cccc(NC(=O)C(C)(C)N)c2)c1 [Compound (2a), N-(3-{[(3-{[2-chloro-5-(methoxy)phenyl]amino}quinoxalin-2-yl)amino]sulfonyl}phenyl)-2-methylalaninamide]
- % ΔT/ΔC [1]: 71.2%
- ΔT/ΔC at the end of study [2]: 36%
- Average body weight change in % per mouse at nadir [3, 9]: −15.8 (21) %
- Drug death [3, 9]: 0/7
- Median ΔT/ΔC in % day 21 [3, 9]: 39%
- Regressions Complete [3, 9]: 0/7
- Regressions Partial [3, 9]: 0/7
- tolerability [3, 10]: tolerated, inducing some BWL but not reaching toxicity
- Average body weight change in % per mouse at nadir [4, 11]: −9.2 (50) %
- Drug death [4, 11]: 0/7
- Median ΔT/ΔC in % day 50 [4, 11]: 53%
- Regressions Complete [4, 11]: 0/7
- Regressions Partial [4, 11]: 0/7
- tolerability [4, 10]: tolerated, inducing some BWL but not reaching toxicity
- decrease of the Evans-Blue/Dextran-Fitc ratio compared to control [5]: −8%
- stock solution chemically stable ([6]; in 1N HCl and water for injection, pH 3): 7 days
- stock solution chemically stable ([6]; in water for injection): 7 days
- Average body weight change in % per mouse at nadir [7, 12]: −5.8 (18) %
- Drug death [7, 12]: 0/7
- Median ΔT/ΔC in % day 18 [7, 12]: 62%
- Regressions Complete [7, 12]: 0/7
- Regressions Partial [7, 12]: 0/7
- Average body weight change in % per mouse at nadir [7, 13]: −8.3 (18) %
- Drug death [7, 13]: 0/7
- Median ΔT/ΔC in % day 18 [7, 13]: 80%
- Regressions Complete [7, 13]: 0/7
- Regressions Partial [7, 13]: 0/7
- tolerability ([7]; study 1, as single agents or used in combination): well-tolerated, inducing minimal BWL
- Average body weight change in % per mouse at nadir [7, 14]: −7.7 (18) %
- Drug death [7, 14]: 0/7
- Median ΔT/ΔC in % day 18 [7, 14]: 52%
- Regressions Complete [7, 14]: 0/7
- Regressions Partial [7, 14]: 0/7
- Average body weight change in % per mouse at nadir [7, 15]: −6.7 (18) %
- Drug death [7, 15]: 0/7
- Median ΔT/ΔC in % day 18 [7, 15]: 56%
- Regressions Complete [7, 15]: 0/7
- Regressions Partial [7, 15]: 0/7
- tolerability ([7]; study 2, as single agents): well-tolerated, inducing minimal BWL
- Average body weight change in % per mouse at nadir [7, 16]: −7.8 (19) %
- Drug death [7, 16]: 0/10
- Median ΔT/ΔC in % day 20 [7, 16]: 66%
- Regressions Complete [7, 16]: 0/10
- Regressions Partial [7, 16]: 0/10
- Average body weight change in % per mouse at nadir [7, 17]: −8.5 (20) %
- Drug death [7, 17]: 0/10
- Median ΔT/ΔC in % day 20 [7, 17]: 64%
- Regressions Complete [7, 17]: 0/10
- Regressions Partial [7, 17]: 0/10
- tolerability ([7]; study 3, as single agents): well-tolerated, inducing minimal BWL
- tumor growth [8]: inhibits tumor growth
